A short description of the series: pharmacokinetics after multiple oral administration for 7 days. Format: in vivo, male nude mice. The following applies: for AUC(0-t): male, nude, mouse, plasma, read-out: AUC0-24. The procedure:
Compound (1) was orally administered. The concentrations of Compound (1) were quantified using LC-MS/MS for the PK studies. ^13C-labeled Compound (1) was used as an internal standard.
Pharmacokinetics in nude mice after multiple oral administration for 7 days. Plasma concentration profiles and PK parameters of Compound (1) on Day 7 were determined in male nude mice after once daily oral administrations for 7 days at doses of 6.25, 12.5, and 25 mg/kg (FIGS. 5A and 5B, and Table 5). The Cmax, AUClast, and AUC0-24 values increased in a dose-dependent manner.

Setting [1] is: Day 7, once daily oral 6.25 mg/kg for 7 days.
Setting [2] is: Day 7, once daily oral 12.5 mg/kg for 7 days.
Where [3] appears, read: Day 7, once daily oral 25 mg/kg for 7 days.

Read-outs that look alike come from different tables or passages of the source.

As to `C=CC(=O)N1C[C@H](n2c(C#CC3CC3)c(C(=O)N[C@H](C)c3ccccc3)c3c(N)ncnc32)C[C@@H]1C` [Compound (1), 7-((3R,5S)-1-acryloyl-5-methylpyrrolidin-3-yl)-4-amino-6-(cyclopropylethynyl)-N—((R)-1-phenylethyl)-7H-pyrrolo[2,3-d]pyrimidine-5-carboxamide], under setting [1], the AUClast amounted to 972 ± 239 ng·h/mL, the maximum concentration (Cmax) is given as 1170 ± 300 ng/mL, the Tmax turned out to be 15 ± 0 min and the AUC(0-t) turned out to be 1030 ± 280 ng·h/mL. Moreover, under setting [2], the AUC0-24 stood at 2830 ± 400 ng·h/mL, the AUClast turned out to be 2800 ± 460 ng·h/mL, the Cmax amounted to 2040 ± 230 ng/mL and the time to peak (Tmax) is 19.8 ± 8.4 min. For the same molecule, under setting [3], the AUClast worked out at 6180 ± 310 ng·h/mL, the Cmax was 3710 ± 360 ng/mL, the time of peak concentration (Tmax) amounted to 25.2 ± 8.4 min and the AUC(0-t) came out at 6400 ± 430 ng·h/mL.

(Values after patent US20240238300A1, “TREATMENT METHODS FOR SUBJECTS WITH CANCER HAVING AN ABERRATION IN EGFR AND/OR HER2” (TAIHO PHARMACEUTICAL CO., LTD., priority 2021, published 2024).)
